Laboratory results published in PubChem BioAssay AID1259407 (Chemical Carcinogenesis Research Information System (CCRIS), 2018).
Active and inactive are the calls of the source. No rule for the calls is given here.

Tested on: CCRIS mutagenicity, Ames/micronucleus/aberration tests
Test: CCRIS mutagenicity studies
[1] = Test System: AMES SALMONELLA TYPHIMURIUM, Strain/Indicator: TA102, Metabolic Activation: NONE, Method: PREINCUBATION
[2] = Test System: AMES SALMONELLA TYPHIMURIUM, Strain/Indicator: TA1535, Metabolic Activation: NONE, Method: PREINCUBATION
[3] = Test System: AMES SALMONELLA TYPHIMURIUM, Strain/Indicator: TA1537, Metabolic Activation: NONE, Method: PREINCUBATION
[4] = Test System: AMES SALMONELLA TYPHIMURIUM, Strain/Indicator: TA100, Metabolic Activation: NONE, Method: PREINCUBATION
[5] = Test System: AMES SALMONELLA TYPHIMURIUM, Strain/Indicator: TA98, Metabolic Activation: NONE, Method: PREINCUBATION
[6] = Test System: AMES SALMONELLA TYPHIMURIUM, Strain/Indicator: TA97, Metabolic Activation: NONE, Method: PREINCUBATION
[7] = Test System: AMES SALMONELLA TYPHIMURIUM, Strain/Indicator: TA98, Metabolic Activation: NONE, Method: STANDARD PLATE
[8] = Test System: AMES SALMONELLA TYPHIMURIUM, Strain/Indicator: TA98, Metabolic Activation: RAT, LIVER, S-9, AROCLOR 1254, Method: STANDARD PLATE
[9] = Test System: AMES SALMONELLA TYPHIMURIUM, Strain/Indicator: TA100, Metabolic Activation: NONE, Method: STANDARD PLATE
[10] = Test System: AMES SALMONELLA TYPHIMURIUM, Strain/Indicator: TA100, Metabolic Activation: RAT, LIVER, S-9, AROCLOR 1254, Method: STANDARD PLATE

## CCC[N+](=O)[O-]
Test System: AMES SALMONELLA TYPHIMURIUM, Strain/Indicator: TA98, Metabolic Activation: RAT LIVER S-9, PHENOBARBITAL AND BETA-NAPHTHOFLAVONE, Method: PREINCUBATION
  mutagenic call: inactive; negative
Test System: AMES SALMONELLA TYPHIMURIUM, Strain/Indicator: TA98, Metabolic Activation: RAT, LIVER, S-9, AROCLOR, Method: PREINCUBATION
  mutagenic call: inactive; negative
Test System: AMES SALMONELLA TYPHIMURIUM, Strain/Indicator: TA98, Metabolic Activation: RAT, LIVER, S-9, CLOPHEN A-50, Method: PREINCUBATION
  mutagenic call: inactive; negative
Test System: AMES SALMONELLA TYPHIMURIUM, Strain/Indicator: TA98, Metabolic Activation: RAT, LIVER, S-9, KANECHLOR 500, Method: PREINCUBATION
  mutagenic call: inactive; negative
Test System: AMES SALMONELLA TYPHIMURIUM, Strain/Indicator: TA100, Metabolic Activation: RAT LIVER S-9, PHENOBARBITAL AND BETA-NAPHTHOFLAVONE, Method: PREINCUBATION
  mutagenic call: inactive; negative
Test System: AMES SALMONELLA TYPHIMURIUM, Strain/Indicator: TA100, Metabolic Activation: RAT, LIVER, S-9, AROCLOR, Method: PREINCUBATION
  mutagenic call: inactive; negative
Test System: AMES SALMONELLA TYPHIMURIUM, Strain/Indicator: TA100, Metabolic Activation: RAT, LIVER, S-9, CLOPHEN A-50, Method: PREINCUBATION
  mutagenic call: inactive; negative
Test System: AMES SALMONELLA TYPHIMURIUM, Strain/Indicator: TA100, Metabolic Activation: RAT, LIVER, S-9, KANECHLOR 500, Method: PREINCUBATION
  mutagenic call: inactive; negative
[1]
  mutagenic call: inactive; negative
Test System: AMES SALMONELLA TYPHIMURIUM, Strain/Indicator: TA102, Metabolic Activation: RAT LIVER S-9, PHENOBARBITAL AND BETA-NAPHTHOFLAVONE, Method: PREINCUBATION
  mutagenic call: inactive; negative
Test System: AMES SALMONELLA TYPHIMURIUM, Strain/Indicator: TA102, Metabolic Activation: RAT, LIVER, S-9, AROCLOR, Method: PREINCUBATION
  mutagenic call: inactive; negative
Test System: AMES SALMONELLA TYPHIMURIUM, Strain/Indicator: TA104, Metabolic Activation: NONE, Method: PREINCUBATION
  mutagenic call: inactive; negative
Test System: AMES SALMONELLA TYPHIMURIUM, Strain/Indicator: TA104, Metabolic Activation: RAT LIVER S-9, PHENOBARBITAL AND BETA-NAPHTHOFLAVONE, Method: PREINCUBATION
  mutagenic call: inactive; negative
[2]
  mutagenic call: inactive; negative
Test System: AMES SALMONELLA TYPHIMURIUM, Strain/Indicator: TA1535, Metabolic Activation: RAT LIVER S-9, PHENOBARBITAL AND BETA-NAPHTHOFLAVONE, Method: PREINCUBATION
  mutagenic call: inactive; negative
[3]
  mutagenic call: inactive; negative
Test System: AMES SALMONELLA TYPHIMURIUM, Strain/Indicator: TA1537, Metabolic Activation: RAT LIVER S-9, PHENOBARBITAL AND BETA-NAPHTHOFLAVONE, Method: PREINCUBATION
  mutagenic call: inactive; negative
Test System: CHINESE HAMSTER V-79, Strain/Indicator: V-79/6-THIOGUANINE, Metabolic Activation: NONE, Method: STANDARD PLATE
  mutagenic call: active; positive
Test System: E. COLI, Strain/Indicator: WP2 UVRA (PKM101), Metabolic Activation: NONE, Method: PREINCUBATION
  mutagenic call: inactive; negative
Test System: E.COLI, Strain/Indicator: WP2UVRA/PKM101, Metabolic Activation: NONE, Method: PREINCUBATION
  mutagenic call: inactive; negative
Test System: E.COLI, Strain/Indicator: WP2UVRA/PKM101, Metabolic Activation: RAT LIVER S-9, PHENOBARBITAL AND BETA-NAPHTHOFLAVONE, Method: PREINCUBATION
  mutagenic call: inactive; negative
Test System: E.COLI, Strain/Indicator: WP2UVRA, Metabolic Activation: NONE, Method: PREINCUBATION
  mutagenic call: inactive; negative
Test System: E.COLI, Strain/Indicator: WP2UVRA, Metabolic Activation: RAT LIVER S-9, PHENOBARBITAL AND BETA-NAPHTHOFLAVONE, Method: PREINCUBATION
  mutagenic call: inactive; negative
Test System: UDS RAT HEPATOCYTES, Strain/Indicator: THY INCORP, Metabolic Activation: NONE
  mutagenic call: inactive; negative
Test System: UDS RODENT HEPATOCYTES, Strain/Indicator: THY INCORP (NON-S-PHASE), Metabolic Activation: NONE, Method: PREINCUBATION
  mutagenic call: inactive; negative

## CC1OC1c1ccc(C#N)cc1 (stereo not given)
[4]
  mutagenic call: active; positive

## CC(C)Sc1cc(Cc2ccc(N)c(SC(C)C)c2)ccc1N
[5]
  mutagenic call: inactive; negative
Test System: AMES SALMONELLA TYPHIMURIUM, Strain/Indicator: TA98, Metabolic Activation: RAT, LIVER, S-9, PCB, Method: PREINCUBATION
  mutagenic call: active; positive
[4]
  mutagenic call: inactive; negative
Test System: AMES SALMONELLA TYPHIMURIUM, Strain/Indicator: TA100, Metabolic Activation: RAT, LIVER, S-9, PCB, Method: PREINCUBATION
  mutagenic call: active; positive

## CCCCOc1ccc(C=Nc2ccc(CC)cc2)cc1
Test System: AMES SALMONELLA TYPHIMURIUM, Strain/Indicator: TA97, Metabolic Activation: HAMSTER, LIVER, S-9, AROCLOR 1254 (30%), Method: PREINCUBATION
  mutagenic call: inactive; negative
[6]
  mutagenic call: inactive; negative
Test System: AMES SALMONELLA TYPHIMURIUM, Strain/Indicator: TA97, Metabolic Activation: RAT, LIVER, S-9, AROCLOR 1254 (30%), Method: PREINCUBATION
  mutagenic call: inactive; negative
Test System: AMES SALMONELLA TYPHIMURIUM, Strain/Indicator: TA98, Metabolic Activation: HAMSTER, LIVER, S-9, AROCLOR 1254 (30%), Method: PREINCUBATION
  mutagenic call: inactive; negative
[5]
  mutagenic call: inactive; negative
Test System: AMES SALMONELLA TYPHIMURIUM, Strain/Indicator: TA98, Metabolic Activation: RAT, LIVER, S-9, AROCLOR 1254 (30%), Method: PREINCUBATION
  mutagenic call: inactive; negative
Test System: AMES SALMONELLA TYPHIMURIUM, Strain/Indicator: TA100, Metabolic Activation: HAMSTER, LIVER, S-9, AROCLOR 1254 (10%), Method: PREINCUBATION
  mutagenic call: inactive; negative
[4]
  mutagenic call: inactive; negative
Test System: AMES SALMONELLA TYPHIMURIUM, Strain/Indicator: TA100, Metabolic Activation: RAT, LIVER, S-9, AROCLOR 1254 (30%), Method: PREINCUBATION
  mutagenic call: inactive; negative
Test System: AMES SALMONELLA TYPHIMURIUM, Strain/Indicator: TA1535, Metabolic Activation: HAMSTER, LIVER, S-9, AROCLOR 1254 (10%), Method: PREINCUBATION
  mutagenic call: inactive; negative
Test System: AMES SALMONELLA TYPHIMURIUM, Strain/Indicator: TA1535, Metabolic Activation: HAMSTER, LIVER, S-9, AROCLOR 1254 (30%), Method: PREINCUBATION
  mutagenic call: inactive; negative
[2]
  mutagenic call: inactive; negative
Test System: AMES SALMONELLA TYPHIMURIUM, Strain/Indicator: TA1535, Metabolic Activation: RAT, LIVER, S-9, AROCLOR 1254 (30%), Method: PREINCUBATION
  mutagenic call: inactive; negative
Test System: AMES SALMONELLA TYPHIMURIUM, Strain/Indicator: TA1537, Metabolic Activation: HAMSTER, LIVER, S-9, AROCLOR 1254 (30%), Method: PREINCUBATION
  mutagenic call: inactive; negative
[3]
  mutagenic call: inactive; negative
Test System: AMES SALMONELLA TYPHIMURIUM, Strain/Indicator: TA1537, Metabolic Activation: RAT, LIVER, S-9, AROCLOR 1254 (30%), Method: PREINCUBATION
  mutagenic call: inactive; negative

## O=Cc1cccc(-c2ccccc2)c1
[7]
  mutagenic call: inactive; negative
[8]
  mutagenic call: inactive; negative
[9]
  mutagenic call: inactive; negative
[10]
  mutagenic call: inactive; negative

## CC1=C(/C=C/C(C)=C/C=C/C(C)=C/C=C/C=C(C)/C=C/C=C(C)/C=C/C2=C(C)CCCC2(C)C)C(C)(C)CCC1
End Point: IN VITRO CHROMOSOMAL ABERRATIONS, Test System: F344 FEMALE RAT HEPATOCYTE, Metabolic Activation: NONE
  mutagenic call: active; positive
End Point: IN VITRO MICRONUCLEUS, Test System: F344 FEMALE RAT HEPATOCYTES, Metabolic Activation: NONE
  mutagenic call: active; positive
[6]
  mutagenic call: inactive; negative
Test System: AMES SALMONELLA TYPHIMURIUM, Strain/Indicator: TA97, Metabolic Activation: S-9, Method: PREINCUBATION
  mutagenic call: inactive; negative
[7]
  mutagenic call: inactive; negative
[8]
  mutagenic call: inactive; negative
[9]
  mutagenic call: inactive; negative
[10]
  mutagenic call: inactive; negative
[1]
  mutagenic call: inactive; negative
Test System: AMES SALMONELLA TYPHIMURIUM, Strain/Indicator: TA102, Metabolic Activation: S-9, Method: PREINCUBATION
  mutagenic call: inactive; negative
